According to patent publication US5149365A, “Diorganotin compounds, and agents which have a bactericidal and fungicidal action and contain these compounds” (Schering Aktiengesellschaft, priority 1988, dated 1992):

What was measured:
[1] = test system: Cladosporum herbarum; assay: Filter disk test, Cladosporum herbarum; type: cell-based; settings: 3 weeks, +30° C.
Experimental: (§1) The inhibition action against fungi, of the products according to the invention, was tested using the "filter disk test" (cf. Table 2). For this purpose, paper filter disks (.phi. 5.5 cm) were soaked in ethanolic solutions containing various amounts of active substance. After the filters had dried under room conditions, they were placed on Petri dishes containing plate-count agar which had been inoculated with a spore suspension. The nutrient medium used was biomalt agar 8° Bg, and the dishes were incubated for 3 weeks at +30° C. Thereafter, the sizes of the inhibition zones (distance of the fungal growth from the edge of the filter, in mm) around the samples were determined.

[2] = test system: rats; assay: LD50 oral (rats); type: in vivo
[3] = test system: Daphnia; assay: EC50 in Daphnia (DIN 38412, Part 12); type: in vivo
From the text: **Determination in accordance with DIN 38412, Part 12.

[4] = test system: Escherichia coli; assay: Agar diffusion test, Escherichia coli; type: cell-based; settings: 0: no inhibition action
Experimental: (§2) DST agar was inoculated with 1 drop of a Muller-Hinton broth of the test organisms, diluted 1 : 10. After a prediffusion period of 2 hours at 22° C., the paper filters which had been soaked with solutions of active substance of various concentrations were placed on the agar. The inhibition zones (distance of the cloudy area from the edge of the paper filter in mm) were determined after an incubation time of 24 hours.

[5] = test system: Bacillus subtilis; assay: Agar diffusion test, Bacillus subtilis; type: cell-based; settings: 0: no inhibition action
Experimental: as §2

[6] = test system: Poria monticola; assay: Filter disk test, Poria monticola; type: cell-based; settings: 3 weeks, +30° C.
Experimental: as §1

[7] = test system: Paecilomyces varioti; assay: Filter disk test, Paecilomyces varioti; type: cell-based; settings: 3 weeks, +30° C.
Experimental: as §1

[8] = test system: Orfes; assay: EC50 in Orfes (DIN 38412, Part 15); type: in vivo
From the text: *Determination in accordance with DIN 38412, Part 15

[9] = test system: bacteria and fungi; settings: prior art; cited from earlier work
[10] = Weight loss (release) on storage, 6 days at 65° C.; type: physicochemical
Experimental: As shown by the comparison above, the amount released into the environment during a storage period of 6 days at 65° C. of, for example, TBT-HDO, is nearly six times higher than in the case of DBT-HDO according to the invention.

[11] = test system: Lentinus lepideus; assay: Filter disk test, Lentinus lepideus; type: cell-based; settings: 3 weeks, +30° C.
Experimental: as §1

[12] = test system: Staphilococcus aureaus; assay: Agar diffusion test, Staphilococcus aureaus; type: cell-based; settings: 0: no inhibition action
Experimental: as §2

[13] = test system: Proteus vulgaris; assay: Agar diffusion test, Proteus vulgaris; type: cell-based; settings: 0: no inhibition action
Experimental: as §2

[14] = 0.1% active substance in soaking solution
[15] = 0.3% active substance in soaking solution
[16] = 0.5% active substance in soaking solution

Q: With `CCC[CH2][Sn]([CH2]CCC)([CH2]CCC)[O]N(N=O)C1CCCCC1` [TBT-HDO] as the compound, how does the “inhibition zone (IZ)” value ([1]; 0.5% content of the solution) read?
A: The value was 10-12 mm.

Q: What about the “inhibition zone (IZ)” value ([1]; 1% content of the solution) of the same compound?
A: The value was over 15 mm.

Q: What about the “inhibition zone (IZ)” value ([1]; 2% content of the solution) of the same compound?
A: Its value is over 15 mm.

Q: And the “LD50 oral (rats)” value [2]?
A: The value was 63 mg/kg of body wt.

Q: What about the “EC50 in Daphnia” value [3] of the same compound?
A: Its value is 0.020 mg/l of water.

Q: And the inhibition zone [4, 14]?
A: The inhibition zone was 0 mm.

Q: And the inhibition zone [4, 15]?
A: Its inhibition zone is 0 mm.

Q: And the inhibition zone [4, 16]?
A: Its inhibition zone is 0 mm.

Q: What about the inhibition zone [5, 14] of the same compound?
A: The inhibition zone was 17 mm.

Q: What about the inhibition zone [5, 15] of the same compound?
A: Its inhibition zone is 22 mm.

Q: What about the inhibition zone [5, 16] of the same compound?
A: Its inhibition zone is 18 mm.

Q: And the “inhibition zone (IZ)” value ([6]; 0.5% content of the solution)?
A: The value was 7-9 mm.

Q: And the “inhibition zone (IZ)” value ([6]; 1% content of the solution)?
A: Its value is 15 mm.

Q: What about the “inhibition zone (IZ)” value ([6]; 2% content of the solution) of the same compound?
A: The value was 15 mm.

Q: What about the “inhibition zone (IZ)” value ([7]; 0.5% content of the solution) of the same compound?
A: The value was 10-12 mm.

Q: What about the “inhibition zone (IZ)” value ([7]; 1% content of the solution) of the same compound?
A: Its value is over 15 mm.

Q: And the “inhibition zone (IZ)” value ([7]; 2% content of the solution)?
A: The value was over 15 mm.

Q: What about the “EC50 in Orfes” value [8] of the same compound?
A: The value was 0.035 mg/l of water.

Q: What about the biocidal activity [9] of the same compound?
A: The biocidal activity was “very good biocidal activity”.

Q: What about the Weight loss ([10]; 6 days 65° C.) of the same compound?
A: The Weight loss was 12.8%.

Q: And the “amount released into the environment, times higher than DBT-HDO” value ([10]; storage 6 days at 65° C., TBT-HDO vs DBT-HDO)?
A: Its value is “six”.

Q: What about the “inhibition zone (IZ)” value ([11]; 0.5% content of the solution) of the same compound?
A: The value was over 15 mm.

Q: And the “inhibition zone (IZ)” value ([11]; 1% content of the solution)?
A: Its value is over 15 mm.

Q: And the “inhibition zone (IZ)” value ([11]; 2% content of the solution)?
A: Its value is over 15 mm.

Q: And the inhibition zone [12, 14]?
A: Its inhibition zone is 28 mm.

Q: What about the inhibition zone [12, 15] of the same compound?
A: Its inhibition zone is 32 mm.

Q: And the inhibition zone [12, 16]?
A: Its inhibition zone is 24 mm.

Q: What about the inhibition zone [13, 14] of the same compound?
A: The inhibition zone was 6 mm.

Q: And the inhibition zone [13, 15]?
A: The inhibition zone was 7 mm.

Q: What about the inhibition zone [13, 16] of the same compound?
A: Its inhibition zone is 7 mm.
